The values that follow come from patent US9624256B2, “Coordination complexes, pharmaceutical solutions comprising coordination complexes, and methods of treating patients” (SYNTHONICS, INC., priority 2004, dated 2017).

Where “and” joins values, the source holds several entries; their conditions need not be identical. Equal values may be shown once. Read-outs that look alike come from different tables or passages of the source.

The nature of data set [1]: Precipitation test after adjusting aqueous solution to pH 7.0. The data set is classed as physicochemical. As to conditions: 32 mg based on topiramate in 1 mL H2O, pH adjusted to 7.0 with 1.0 N HCl.
Data set [2] can be described thus: Solubility/pH studies of topiramate-containing coordination complexes (gravimetric). The data set is classed as physicochemical. The method, then:
Solubility/pH Studies of Topiramate-Containing Coordination Complexes: Initial screening of drug candidates was based on a qualitative determination of aqueous solubility using gravimetric methods. Briefly, a known quantity of coordination compound (ca. 50 mg) was dissolved in a known amount of water ([…]). The pH of the resulting mixture was measured, and the solution/suspension was filtered and concentrated to afford a minimal solubility value.

The conditions of data set [3]: for pH: Table 2, pH of the solution; for increase in water solubility over SAHA: pH 10.
The conditions of data set [4]: cited from earlier work.
For data set [5] the following is noted: highly variable; cited from earlier work.
For data set [6] the following is noted: 23° C., cited from earlier work.
The conditions of data set [7]: pH 7.4; cited from earlier work.

What is called log D is lipophilicity at a set pH, counting ionised and neutral species.

In the case of `CC1(C)O[C@@H]2[C@@H](CO[C@@]3(COS([NH-])(=O)=O)OC(C)(C)O[C@@H]23)O1.CC1(C)O[C@@H]2[C@@H](CO[C@@]3(COS([NH-])(=O)=O)OC(C)(C)O[C@@H]23)O1.[Ca+2]` [Calcium Salt of Topiramate], in data set [1], the precipitation on standing entry was “A precipitate formed immediately”.
Regarding `CC1(C)O[C@@H]2[C@@H](CO[C@@]3(COS([NH-])(=O)=O)OC(C)(C)O[C@@H]23)O1.CC1(C)O[C@@H]2[C@@H](CO[C@@]3(COS([NH-])(=O)=O)OC(C)(C)O[C@@H]23)O1.[Ca+2]` [Calcium(topiramate)2], the precipitation on standing result in data set [1] was “No precipitate was observed upon standing for 2 hours”. Further, the “solubility relative to free topiramate” value in data set [2] (pH 7.0) is reported as “at least three times the solubility of free topiramate”. Besides, the “solubility (minimal value)” value in data set [2] (pH 7.0, gravimetric) was at least 34 mg/mL.
In the case of `O=C(CCCCCCC(=O)Nc1ccccc1)N[O-].O=C(CCCCCCC(=O)Nc1ccccc1)N[O-].[Mg+2]` [Compound 1, Mg(saha)2], in data set [3], the “pH of the solution” value is given as 7.75 and the pH is 7.94.
On to `O=C(CCCCCCC(=O)Nc1ccccc1)N[O-].O=C(CCCCCCC(=O)Nc1ccccc1)N[O-].[Ca+2]` [Compound 2, Ca(saha)2], for which, in data set [3], the “pH of the solution” value came out at 8.60 and the pH is on record as 8.6. Also, the “pH of solution compared with SAHA” value in data set [3] (in words) is on record as “slightly higher than the pH of a solution of SAHA itself”.
Take `O=C(CCCCCCC(=O)Nc1ccccc1)N[O-].O=C(CCCCCCC(=O)Nc1ccccc1)N[O-].[Ni+2]` [Compound 3, Ni(saha)2]: in data set [3], the “pH of the solution” value was found to be 5.86 and the pH came to 5.67.
For the compound `O=C(CCCCCCC(=O)Nc1ccccc1)N[O-].[Na+]` [Na(saha)], in data set [3], the “pH of the solution” value is on record as “around 10”, the pH worked out at 10 and the “increase in water solubility over SAHA” value was around 7 fold. In addition, the “pH of the solution” value in data set [3] (listed as sodium salt of SAHA) was found to be 10. The “solution pH required to stay in solution” value in data set [4] (prior study, Memorial Sloan Kettering Cancer Center) is recorded as “above 11”.
In data set [3], `O=C(CCCCCCC(=O)Nc1ccccc1)NO` [SAHA, suberoylanilide hydroxamic acid] showed a pH of 7.95. For the same compound, the oral bioavailability entry in data set [5] is recorded as “less than 50%”. For the same compound, in data set [4], the water solubility entry is listed as “about 0.1 mg/mL”.
For `CC1(C)O[C@@H]2[C@@H](CO[C@@]3(COS([NH-])(=O)=O)OC(C)(C)O[C@@H]23)O1.O.O.O.[Na+]` [sodium topiramate trihydrate], the water solubility entry in data set [6] (trihydrate) is “about 1300 mg/mL and ~3.59 M”.
Consider `CC1(C)O[C@@H]2[C@@H](CO[C@@]3(COS(N)(=O)=O)OC(C)(C)O[C@@H]23)O1` [topiramate, 2,3:4,5-bis-O-isopropylidene-β-D-fructopyranose sulfamate], for which the water solubility result in data set [6] is “about 9.8 mg/mL and ~0.029 M”. The log distribution coefficient (log D) in data set [7] is −0.5.
In the case of Ca(saha)(quinic acid) [Compound 5], in data set [3], the “increase in water solubility over SAHA” value is around 19 fold.
Turning to Ca(saha)(tricine) [Compound 4], in data set [3], the “pH of the solution” value stood at 8.75 and the pH was determined as 8.75.
